Test results taken from patent US8293768B2, “Organic compounds” (Novartis AG, priority 2006, dated 2012).

Compared with `O=C(NCc1cccnc1)c1cnc(N2CCN(CC3CC3)C2=O)s1` [Example 26, 2-(3-(cyclopropylmethyl)-2-oxoimidazolidin-1-yl)-N-(pyridin-3-ylmethyl)thiazole-5-carboxamide], `Cc1nc(N2CCCN(CC3CC3)C2=O)sc1C(=O)NCc1cccnc1` [Example 32.26, 2-(3-(cyclopropylmethyl)-2-oxotetrahydropyrimidin-1(2H)-yl)-4-methyl-N-(pyridin-3-ylmethyl)thiazole-5-carboxamide] is lower in melting point: 190 to 192 °C for the first, 142 to 145 °C for the second.

First: Cc1nc(N2CCN(Cc3ccc(C(F)(F)F)cc3)C2=O)sc1C(=O)NCc1ccccc1 [Example 9.13, N-benzyl-4-methyl-2-(2-oxo-3-(4-(trifluoromethyl)benzyl)imidazolidin-1-yl)thiazole-5-carboxamide]
Second: Cc1nc(N2CCN(Cc3ccc(C(F)(F)F)o3)C2=O)sc1C(=O)NCc1ccccc1 [Example 23.4, N-benzyl-4-methyl-2-(2-oxo-3-((5-(trifluoromethyl)furan-2-yl)methyl)imidazolidin-1-yl)thiazole-5-carboxamide]
The melting point of the first is lower: 127 to 128 °C for the first, 143 to 145 °C for the second.

First: Cc1cc(N2CCN(Cc3ccc(C(F)(F)F)cc3)C2=O)sc1C(=O)NCc1cccnc1 [Example 15, 3-methyl-5-(2-oxo-3-(4-(trifluoromethyl)benzyl)imidazolidin-1-yl)-N-(pyridin-3-ylmethyl)thiophene-2-carboxamide]
Second: Cc1nc(N2C(=O)N(Cc3ccc(C(F)(F)F)cc3)CC2O)sc1C(=O)NCc1cccnc1 (centres unmarked) [Example 16.3, 2-(5-hydroxy-2-oxo-3-(4-(trifluoromethyl)benzyl)imidazolidin-1-yl)-4-methyl-N-(pyridin-3-ylmethyl)thiazole-5-carboxamide]
The melting point of the first is lower: 102 to 104 °C for the first, 171 to 172 °C for the second.

First: Cc1cnc(CNC(=O)c2sc(N3CCN(Cc4ccc(C(F)(F)F)cc4)C3=O)nc2C)cn1 [Example 9.33, 4-methyl-N-((5-methylpyrazin-2-yl)methyl)-2-(2-oxo-3-(4-(trifluoromethyl)benzyl)imidazolidin-1-yl)thiazole-5-carboxamide]
Second: Cc1nc(N2CCN(Cc3ccc(F)cc3)C2=O)sc1C(=O)NCc1ccncn1 [Example 32.14, 2-(3-(4-fluorobenzyl)-2-oxoimidazolidin-1-yl)-4-methyl-N-(pyrimidin-4-ylmethyl)thiazole-5-carboxamide]
The melting point of the first is lower: 172 to 173 °C for the first, 175 to 176 °C for the second.

First: Cc1nc(N2CCN(Cc3ccc(OC(F)(F)F)cc3)C2=O)sc1C(=O)NC[C@H](O)c1ccccc1 [Example 9.29, (R)—N-(2-hydroxy-2-phenylethyl)-4-methyl-2-(2-oxo-3-(4-(trifluoromethoxy)benzyl)imidazolidin-1-yl)thiazole-5-carboxamide]
Second: Cc1nc(N2CCN(Cc3ccccc3)C2=O)sc1C(=O)NCc1cccc(F)c1 [Example 8.1, 2-(3-benzyl-2-oxoimidazolidin-1-yl)-N-(3-fluorobenzyl)-4-methylthiazole-5-carboxamide]
The melting point of the first is lower: 149 to 151 °C for the first, 169 to 171 °C for the second.

First: Cc1nc(-n2cnn(CCNc3ccc(F)cc3)c2=O)sc1C(=O)NCc1cccnc1 [Example 47.1, 2-(1-(2-(4-fluorophenylamino)ethyl)-5-oxo-1H-1,2,4-triazol-4(5H)-yl)-4-methyl-N-(pyridin-3-ylmethyl)thiazole-5-carboxamide]
Second: Cc1nc(-n2cnn(CCNCc3ccc(F)cc3)c2=O)sc1C(=O)NCc1cccnc1 [Example 47, 2-(1-(2-(4-fluorobenzylamino)ethyl)-5-oxo-1H-1,2,4-triazol-4(5H)-yl)-4-methyl-N-(pyridin-3-ylmethyl)thiazole-5-carboxamide]
The melting point of the first is higher: 163 to 164 °C for the first, 106 to 107 °C for the second.

First: Cc1nc(N2CCN(Cc3cccnc3)C2=O)sc1C(=O)NCc1ccccc1 [Example 32.9, N-benzyl-4-methyl-2-(2-oxo-3-(pyridin-3-ylmethyl)imidazolidin-1-yl)thiazole-5-carboxamide]
Second: Cc1nc(N2CCN(CCCc3ccccc3)C2=O)sc1C(=O)NCc1cccnc1 [Example 9.27, 4-methyl-2-(2-oxo-3-(3-phenylpropyl)imidazolidin-1-yl)-N-(pyridin-3-ylmethyl)thiazole-5-carboxamide]
The melting point of the first is lower: 110 to 113 °C for the first, 127 to 128 °C for the second.

Compared with `Cc1nc(N2CCN(Cc3cccc4cccnc34)C2=O)sc1C(=O)NCc1cccnc1` [Example 32.2, 4-methyl-2-(2-oxo-3-(quinolin-8-ylmethyl)imidazolidin-1-yl)-N-(pyridin-3-ylmethyl)thiazole-5-carboxamide], `COC(=O)c1ccccc1CN1CCN(c2nc(C)c(C(=O)NCc3ccccc3)s2)C1=O` [Example 23.10, methyl 2-((3-(5-(benzylcarbamoyl)-4-methylthiazol-2-yl)-2-oxoimidazolidin-1-yl)methyl)benzoate] is lower in melting point: 225 to 228 °C for the first, 130 to 133 °C for the second.

First: Cc1nc(-n2cnn(CCO)c2=O)sc1C(=O)NCc1cccnc1 [Example 19.9, 2-(1-(2-hydroxyethyl)-5-oxo-1H-1,2,4-triazol-4(5H)-yl)-4-methyl-N-(pyridin-3-ylmethyl)thiazole-5-carboxamide]
Second: Cc1cc(-n2cnn(Cc3ccc(F)cc3)c2=O)sc1C(=O)NCc1cccnc1 [Example 31, 5-(1-(4-fluorobenzyl)-5-oxo-1H-1,2,4-triazol-4(5H)-yl)-3-methyl-N-(pyridin-3-ylmethyl)thiophene-2-carboxamide]
The melting point of the first is higher: 201 to 202 °C for the first, 180 to 182 °C for the second.

First: Cc1nc(N2CCN(CC3CCCCO3)C2=O)sc1C(=O)NCc1cccnc1 (centres unmarked) [Example 9.36, 4-methyl-2-(2-oxo-3-((tetrahydro-2H-pyran-2-yl)methyl)imidazolidin-1-yl)-N-(pyridin-3-ylmethyl)thiazole-5-carboxamide]
Second: Cc1nc(N2CCN(CC3CC3)C2=O)sc1C(=O)NCc1ccc(F)cc1 [Example 9.15, 2-(3-(cyclopropylmethyl)-2-oxoimidazolidin-1-yl)-N-(4-fluorobenzyl)-4-methylthiazole-5-carboxamide]
The melting point of the first is higher: 174 to 175 °C for the first, 146 to 147 °C for the second.

First: Cc1nc(N2CCN(CCc3c[nH]c4ccccc34)C2=O)sc1C(=O)NCc1ccccc1 [Example 23.7, 2-(3-(2-(1H-indol-3-yl)ethyl)-2-oxoimidazolidin-1-yl)-N-benzyl-4-methylthiazole-5-carboxamide]
Second: COC(=O)c1cccc(CN2CCN(c3nc(C)c(C(=O)NCc4ccccc4)s3)C2=O)c1 [Example 23.9, methyl 3-((3-(5-(benzylcarbamoyl)-4-methylthiazol-2-yl)-2-oxoimidazolidin-1-yl)methyl)benzoate]
The melting point of the first is higher: 215 to 217 °C for the first, 49 to 51 °C for the second.

Compared with `Cc1cnc(CNC(=O)c2sc(-n3cnn(Cc4ccc(F)cc4)c3=O)cc2C)cn1` [Example 31.5, 5-(1-(4-fluorobenzyl)-5-oxo-1H-1,2,4-triazol-4(5H)-yl)-3-methyl-N-((5-methylpyrazin-2-yl)methyl)thiophene-2-carboxamide], `Cc1cc(-n2cnn(Cc3ccc(F)cc3)c2=O)sc1C(=O)NCc1cnn(C)c1` [Example 31.7, 5-(1-(4-fluorobenzyl)-5-oxo-1H-1,2,4-triazol-4(5H)-yl)-3-methyl-N-((1-methyl-1H-pyrazol-4-yl)methyl)thiophene-2-carboxamide] is lower in melting point: 189 to 191 °C for the first, 168 to 170 °C for the second.

First: Cc1cc(N2CCN(CCOc3ccccc3)C2=O)sc1C(=O)NCc1cccnc1 [Example 55, 3-methyl-5-(2-oxo-3-(2-phenoxyethyl)imidazolidin-1-yl)-N-(pyridin-3-ylmethyl)thiophene-2-carboxamide]
Second: Cc1ccc(CNC(=O)c2sc(N3CCN(Cc4ccccc4)C3=O)nc2C)o1 [Example 9.10, 2-(3-benzyl-2-oxoimidazolidin-1-yl)-4-methyl-N-((5-methylfuran-2-yl)methyl)thiazole-5-carboxamide]
The melting point of the first is lower: 78 to 80 °C for the first, 138 to 139 °C for the second.

First: CCOC(=O)c1sc(N2CCNC2=O)nc1C(F)(F)F [Example 3.2, ethyl 2-(2-oxoimidazolidin-1-yl)-4-(trifluoromethyl)thiazole-5-carboxylate]
Second: CCOC(=O)c1sc(N2CCN(Cc3ccc(Cl)cc3)C2=O)nc1C [Example 10.3, ethyl 2-(3-(4-chlorobenzyl)-2-oxoimidazolidin-1-yl)-4-methylthiazole-5-carboxylate]
The melting point of the first is higher: 185 to 187 °C for the first, 117 to 119 °C for the second.

Compared with `COC(=O)c1ccc(CN2CCN(c3nc(C)c(C(C)=O)s3)C2=O)cc1` [Example 5.11, methyl 4-((3-(5-acetyl-4-methylthiazol-2-yl)-2-oxoimidazolidin-1-yl)methyl)benzoate], `Cc1csc(N2CCN(Cc3ccc(C(=O)Nc4ccc(F)cc4)cc3)C2=O)n1` [Example 8.7, N-(4-fluorophenyl)-4-((3-(4-methylthiazol-2-yl)-2-oxoimidazolidin-1-yl)methyl)benzamide] is higher in melting point: 174 to 175 °C for the first, 206 to 207 °C for the second.

First: Cc1nc(N2CCN(Cc3ccccc3)C2=N)sc1C(=O)NCc1ccc(F)cc1 [Example 27.4, 2-(3-benzyl-2-iminoimidazolidin-1-yl)-N-(4-fluorobenzyl)-4-methylthiazole-5-carboxamide]
Second: Cc1nc(N2CCN(Cc3ccccc3)C2=N)sc1C(=O)NCc1ccc(F)c(F)c1 [Example 27.5, 2-(3-benzyl-2-iminoimidazolidin-1-yl)-N-(3,4-difluorobenzyl)-4-methylthiazole-5-carboxamide]
The melting point of the first is higher: 142 to 144 °C for the first, 140 to 142 °C for the second.

Compared with `Cc1nc(N2C[C@@H](Cc3ccccc3)NC2=O)sc1C(=O)NCc1ccccc1` [Example 9.25, (R)—N-benzyl-2-(4-benzyl-2-oxoimidazolidin-1-yl)-4-methylthiazole-5-carboxamide], `Cc1nc(-n2cnn(Cc3ccc(F)cc3)c2=O)sc1C(=O)NCc1cn(C)cn1` [Example 21.14, 2-(1-(4-fluorobenzyl)-5-oxo-1H-1,2,4-triazol-4(5H)-yl)-4-methyl-N-((1-methyl-1H-imidazol-4-yl)methyl)thiazole-5-carboxamide] is higher in melting point: 212 to 214 °C for the first, 225 to 226 °C for the second.

With `Cc1cc(N2CCN(CC(O)c3ccccc3)C2=O)sc1C(=O)NCc1cccnc1` (centres unmarked) [Example 57, 5-(3-(2-hydroxy-2-phenylethyl)-2-oxoimidazolidin-1-yl)-3-methyl-N-(pyridin-3-ylmethyl)thiophene-2-carboxamide] the melting point was 75 °C (dec.).
